This note sets out measurements from patent EP4786487A1, “PEPTIDE” (Peptidream Inc, priority 2023, dated 2025).

Positions of bridges follow the written chain, without caps; N, C: chain ends. Non-standard residues stand in square brackets, D forms with d. Residues, ends and D or L forms follow the SMILES beside them. *: point of attachment. Phe(4-(4-pyridyl)) = N[C@@H](Cc1ccc(-c2ccncc2)cc1)C(=O)O; Phe(3-OCH2COOH) = N[C@@H](Cc1cccc(OCC(=O)O)c1)C(=O)O; Phe(3-CONH2) = NC(=O)c1cccc(C[C@H](N)C(=O)O)c1; Phe(4-COOH) = N[C@@H](Cc1ccc(C(=O)O)cc1)C(=O)O; Trp(7-aza) = N[C@@H](Cc1c[nH]c2ncccc12)C(=O)O; Bip = N[C@@H](Cc1ccc(-c2ccccc2)cc1)C(=O)O; Gly(Nα-CH2CH2CONH2) = NC(=O)CCNCC(=O)O; Gly(N(CH2)3COOH) = O=C(O)CCCNCC(=O)O; NMeF = CN[C@@H](Cc1ccccc1)C(=O)O; NMeD = CN[C@@H](CC(=O)O)C(=O)O; Carboxymethyl = O=C(O)C*; NMeA = CN[C@@H](C)C(=O)O; Sar = CNCC(=O)O

Holding throughout (format): cell-based
In one assay the target is T1, GDF-11 (Homo sapiens, UniProt O95390).
T1 construct: purchased R&D systems 1958-GD-G8/CF
T1 sequence (O95390 299-407): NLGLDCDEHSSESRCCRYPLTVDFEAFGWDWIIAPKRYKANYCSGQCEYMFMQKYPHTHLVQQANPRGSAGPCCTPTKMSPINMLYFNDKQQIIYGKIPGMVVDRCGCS
The assay can be described thus: Reporter gene assay for myostatin signaling in HepG2 cell line, Evaluation Procedure (1), GDF-11 inhibition. To be noted: Method A: GDF-11 10 ng/mL; read-out: IC50 (Luciferase) GDF-11 HepG2. The method, then:
(§1) In this Example, the in vitro myostatin inhibitory effects of the peptides synthesized in Examples 1 and 2 were evaluated using a reporter gene assay for myostatin signaling in HepG2 cell line.
(§2) HepG2 cell line (HB-8065, ATCC) cultured in EMEM (055-08975, WAKO Industries) containing 10% FBS (10270106, Gibco) and 50 µg/mL gentamicin (11980-14, Nacalai Tesque) was seeded in 96-well plates (167008, Thermo) at 2.0 × 10^4 cells/well and incubated in a CO2 incubator (37°C, 5% CO2) for 24 hours. The pGL3(CAGA)12-luc plasmid, namely a pGL3 vector (E1751, Promega) having a luciferase gene inserted downstream of a promoter sequence with 12 CAGA repeats attached, was added to the wells along with a transfection reagent (X-treamGENE9 DNA Transfection Reagent, 6365809001, Roche) at a concentration of 0.04 µg/well. The cell line was cultured in a CO2 incubator (37°C, 5% CO2) for 24 hours for transfection. The medium was discarded and replaced with EMEM containing 50 µL/well of 0.1% bovine serum albumin (A7030, Sigma) and 50 µg/mL gentamicin, and incubated in a CO2 incubator (37°C, 5% CO2) for 2 hours.
(§3) Myostatin (788-G8/C, R&D systems) or GDF-11 (1958-GD-G8/CF, R&D systems) was added so that the final concentrations were those listed in Table 5.
(§4) A 4-fold dilution series of various peptides synthesized in Examples 1 and 2 was added to achieve 0.006-100 nmol/L (myostatin inhibition) and 0.12-2000 nmol/L (GDF-11 inhibition). At this time, blank wells, in which neither myostatin, GDF-11, nor each peptide was added, were also prepared and incubated in a CO2 incubator (37°C, 5% CO2) for 20 to 24 hours.
(§5) The medium containing the cells was removed, and a mixture containing PBS (14190144, Thermo) and a chromogenic substrate One-Glo Luciferase Assay System (E6120, Promega) at a ratio of 1:1 was added to each well at 100 µL/well. This was stirred with a plate shaker for 5 min and transferred to a 384-well plate (3570, Corning) at a volume of 20 µL/well.
(§6) The plate was centrifuged at 1,000 × g for 1 min and the luminescence signal (700 nm luminescence) was measured using a plate reader (Envision 2104, PerkinElmer). Based on the measured values, IC50 values of the peptides were calculated using software (Prism 9, GraphPad). […]
(§7) In this Example, the in vitro myostatin inhibitory effects of the peptides synthesized in Examples 10 and 11 were evaluated according to the Evaluation Procedure (1) in Example 3.

The target of assay [1] is T2, Myostatin (Homo sapiens, UniProt O14793).
T2 construct: active myostatin (also called mature myostatin) is a homodimer consisting of two C-terminal growth factor domains; purchased R&D systems 788-G8/CF
T2 sequence (O14793 267-375): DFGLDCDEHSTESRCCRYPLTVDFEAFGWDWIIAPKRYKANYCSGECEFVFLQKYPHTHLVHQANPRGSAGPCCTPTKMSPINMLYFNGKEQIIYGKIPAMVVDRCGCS
The assay can be described thus: Reporter gene assay for myostatin signaling in HepG2 cell line, Evaluation Procedure (1), myostatin inhibition. To be noted: Method A: Myostatin 10 ng/mL; read-out: IC50 (Luciferase) Myostatin HepG2. Here is the method: as §1, §2, §3, §4, §5, §6, §7
A general note: Reporter assays use an easily measured gene product as a stand-in for the process of interest.

The subject of assay [2] is Myostatin. The description is as above. To be noted: Method A; GDF-11 IC50 versus Myostatin IC50. Here is the method:
as §1, §2, §3, §4, §5, §6, §7

Turning to `CC[C@H](C)[C@@H]1NC(=O)[C@H](Cc2ccccc2)N(C)C(=O)[C@H](Cc2ccc(O)cc2)NC(=O)[C@H](Cc2c[nH]c3ncccc23)NC(=O)[C@H](C)NC(=O)CN(CCCC(=O)O)C(=O)CSC[C@H](C(=O)O)NC(=O)[C@H](Cc2ccccc2)N(C)C(=O)[C@H](C)N(C)C(=O)[C@H](CC(C)C)NC(=O)[C@H](Cc2ccccc2)N(C)C(=O)[C@H](CCCNC(=N)N)NC(=O)[C@H](Cc2cccc(C(N)=O)c2)NC(=O)[C@H](Cc2ccccc2)NC(=O)CN(C)C1=O` [Myostatin_99_v45] ({CH2CO}-[Gly(N(CH2)3COOH)]A[Trp(7-aza)]Y[NMeF]I[Sar]F[Phe(3-CONH2)]R[NMeF]L[NMeA][NMeF][dC]-OH; thioether N-15), the figures for the IC50 at GDF-11 and at Myostatin [1] were 0.332 µM and 0.0128 µM, respectively. The Selectivity in the assay with Myostatin [2] worked out at 26.

With `CC[C@H](C)[C@@H]1NC(=O)[C@H](Cc2ccccc2)N(C)C(=O)[C@H](Cc2ccc(O)cc2)NC(=O)[C@H](Cc2c[nH]c3ncccc23)NC(=O)[C@H](C)NC(=O)CN(CCC(N)=O)C(=O)CSC[C@H](C(=O)O)NC(=O)[C@H](Cc2ccccc2)N(C)C(=O)[C@H](C)N(C)C(=O)[C@H](CC(C)C)NC(=O)[C@H](Cc2ccccc2)N(C)C(=O)[C@H](CCCNC(=N)N)NC(=O)[C@H](Cc2ccc(C(=O)O)cc2)NC(=O)[C@H](Cc2ccccc2)NC(=O)CN(C)C1=O` [Myostatin_99_v46] ({CH2CO}-[Gly(Nα-CH2CH2CONH2)]A[Trp(7-aza)]Y[NMeF]I[Sar]F[Phe(4-COOH)]R[NMeF]L[NMeA][NMeF][dC]-OH; thioether N-15), the IC50 worked out at 1.54 µM on GDF-11 and 0.0432 µM on Myostatin [1]. In the assay with Myostatin [2], the Selectivity was 36.

Regarding `CC[C@H](C)[C@@H]1NC(=O)[C@H](Cc2ccccc2)N(C)C(=O)[C@H](Cc2ccc(O)cc2)NC(=O)[C@H](Cc2ccc(-c3ccncc3)cc2)NC(=O)[C@H](C)NC(=O)CN(CCCC(=O)O)C(=O)CSC[C@H](C(=O)O)NC(=O)[C@H](Cc2ccccc2)N(C)C(=O)[C@H](C)N(C)C(=O)[C@H](CC(C)C)NC(=O)[C@H](Cc2ccccc2)N(C)C(=O)[C@H](CCCNC(=N)N)NC(=O)[C@H](Cc2ccc(OCC(=O)O)cc2)NC(=O)[C@H](Cc2cccc(OCC(=O)O)c2)NC(=O)[C@H](C)N(C)C1=O` [Myostatin_99_v83] ({CH2CO}-[Gly(N(CH2)3COOH)]A[Phe(4-(4-pyridyl))]Y[NMeF]I[NMeA][Phe(3-OCH2COOH)]Y(Carboxymethyl)R[NMeF]L[NMeA][NMeF][dC]-OH; thioether N-15), the IC50 on GDF-11 amounted to 3.01 µM; at Myostatin [1], 0.0209 µM. This molecule also came in with a Selectivity in the assay on Myostatin [2] of 144.

Turning to `CC[C@H](C)[C@@H]1NC(=O)[C@H](Cc2ccccc2)N(C)C(=O)[C@H](Cc2ccc(O)cc2)NC(=O)[C@H](Cc2ccc(-c3ccncc3)cc2)NC(=O)[C@H](C)NC(=O)CN(CCCC(=O)O)C(=O)CSC[C@H](C(=O)O)NC(=O)[C@H](Cc2ccccc2)N(C)C(=O)[C@H](C)N(C)C(=O)[C@H](CC(C)C)NC(=O)[C@H](Cc2ccccc2)N(C)C(=O)[C@H](CCCNC(=N)N)NC(=O)[C@H](Cc2ccc(OCC(=O)O)cc2)NC(=O)[C@H](Cc2cccc(OCC(=O)O)c2)NC(=O)CN(C)C1=O` [Myostatin_99_v84] ({CH2CO}-[Gly(N(CH2)3COOH)]A[Phe(4-(4-pyridyl))]Y[NMeF]I[Sar][Phe(3-OCH2COOH)]Y(Carboxymethyl)R[NMeF]L[NMeA][NMeF][dC]-OH; thioether N-15), the IC50 was determined as 3.05 µM at GDF-11 and 0.0273 µM at Myostatin [1]. Besides, the Selectivity in the assay with Myostatin [2] was determined as 112.

On to `CC[C@H](C)[C@@H]1NC(=O)[C@H](Cc2ccccc2)N(C)C(=O)[C@H](Cc2ccc(O)cc2)NC(=O)[C@H](Cc2ccc(-c3ccccc3)cc2)NC(=O)[C@H](C)NC(=O)CN(CCCC(=O)O)C(=O)CSC[C@H](C(=O)O)NC(=O)[C@H](Cc2ccccc2)N(C)C(=O)[C@H](C)N(C)C(=O)[C@H](CC(C)C)NC(=O)[C@H](Cc2ccccc2)N(C)C(=O)[C@H](CCCNC(=N)N)NC(=O)[C@H](Cc2ccc(OCC(=O)O)cc2)NC(=O)[C@H](Cc2cccc(OCC(=O)O)c2)NC(=O)[C@H](C)N(C)C1=O` [Myostatin_99_v85] ({CH2CO}-[Gly(N(CH2)3COOH)]A[Bip]Y[NMeF]I[NMeA][Phe(3-OCH2COOH)]Y(Carboxymethyl)R[NMeF]L[NMeA][NMeF][dC]-OH; thioether N-15), for which the values for the IC50 at GDF-11 and on Myostatin [1] were 3.37 µM and 0.0135 µM, respectively. For the same molecule, the Selectivity in the assay on Myostatin [2] came to 250.

Regarding `CC[C@H](C)[C@@H]1NC(=O)[C@H](Cc2ccccc2)N(C)C(=O)[C@H](Cc2ccc(O)cc2)NC(=O)[C@H](Cc2ccc(-c3ccccc3)cc2)NC(=O)[C@H](C)NC(=O)CN(CCCC(=O)O)C(=O)CSC[C@H](C(=O)O)NC(=O)[C@H](Cc2ccccc2)N(C)C(=O)[C@H](C)N(C)C(=O)[C@H](CC(C)C)NC(=O)[C@H](Cc2ccccc2)N(C)C(=O)[C@H](CCCNC(=N)N)NC(=O)[C@H](Cc2ccc(OCC(=O)O)cc2)NC(=O)[C@H](Cc2cccc(OCC(=O)O)c2)NC(=O)CN(C)C1=O` [Myostatin_99_v86] ({CH2CO}-[Gly(N(CH2)3COOH)]A[Bip]Y[NMeF]I[Sar][Phe(3-OCH2COOH)]Y(Carboxymethyl)R[NMeF]L[NMeA][NMeF][dC]-OH; thioether N-15), the IC50 on GDF-11 was 1.65 µM; on Myostatin [1], 0.0104 µM. Further, in the assay with Myostatin [2], the Selectivity is on record as 159.

Take `CC[C@H](C)[C@@H]1NC(=O)[C@H](Cc2ccccc2)N(C)C(=O)[C@H](Cc2ccc(O)cc2)NC(=O)[C@H](Cc2ccc(-c3ccncc3)cc2)NC(=O)CNC(=O)CN(CCCC(=O)O)C(=O)CSC[C@H](C(=O)O)NC(=O)[C@H](Cc2ccccc2)N(C)C(=O)[C@H](C)N(C)C(=O)[C@H](CC(C)C)NC(=O)[C@H](Cc2ccccc2)N(C)C(=O)[C@H](CCCNC(=N)N)NC(=O)[C@H](Cc2ccc(OCC(=O)O)cc2)NC(=O)[C@H](Cc2cccc(OCC(=O)O)c2)NC(=O)[C@H](C)N(C)C1=O` [Myostatin_99_v91] ({CH2CO}-[Gly(N(CH2)3COOH)]G[Phe(4-(4-pyridyl))]Y[NMeF]I[NMeA][Phe(3-OCH2COOH)]Y(Carboxymethyl)R[NMeF]L[NMeA][NMeF][dC]-OH; thioether N-15): the results for the IC50 at GDF-11 and on Myostatin [1] were 7.38 µM and 0.0723 µM, respectively. Moreover, the Selectivity with Myostatin [2] is given as 102.

With `CC[C@H](C)[C@@H]1NC(=O)[C@H](Cc2ccccc2)N(C)C(=O)[C@H](Cc2ccc(O)cc2)NC(=O)[C@H](Cc2ccc(-c3ccncc3)cc2)NC(=O)CNC(=O)CN(CCCC(=O)O)C(=O)CSC[C@H](C(=O)O)NC(=O)[C@H](Cc2ccccc2)N(C)C(=O)[C@H](C)N(C)C(=O)[C@H](CC(C)C)NC(=O)[C@H](Cc2ccccc2)N(C)C(=O)[C@H](CCCNC(=N)N)NC(=O)[C@H](Cc2ccc(OCC(=O)O)cc2)NC(=O)[C@H](Cc2cccc(OCC(=O)O)c2)NC(=O)CN(C)C1=O` [Myostatin_99_v92] ({CH2CO}-[Gly(N(CH2)3COOH)]G[Phe(4-(4-pyridyl))]Y[NMeF]I[Sar][Phe(3-OCH2COOH)]Y(Carboxymethyl)R[NMeF]L[NMeA][NMeF][dC]-OH; thioether N-15), the IC50 at GDF-11 came to 3.88 µM; at Myostatin [1], 0.0781 µM. Also, the Selectivity with Myostatin [2] turned out to be 50.

As for `CC[C@H](C)[C@@H]1NC(=O)[C@H](Cc2ccccc2)N(C)C(=O)[C@H](Cc2ccc(O)cc2)NC(=O)[C@H](Cc2ccc(-c3ccncc3)cc2)NC(=O)[C@H](C)NC(=O)[C@H](CC(=O)O)N(C)C(=O)CSC[C@H](C(=O)O)NC(=O)[C@H](Cc2ccccc2)N(C)C(=O)[C@H](C)N(C)C(=O)[C@H](CC(C)C)NC(=O)[C@H](Cc2ccccc2)N(C)C(=O)[C@H](CCCNC(=N)N)NC(=O)[C@H](Cc2ccc(OCC(=O)O)cc2)NC(=O)[C@H](Cc2cccc(OCC(=O)O)c2)NC(=O)CN(C)C1=O` [Myostatin_99_v96] ({CH2CO}-[NMeD]A[Phe(4-(4-pyridyl))]Y[NMeF]I[Sar][Phe(3-OCH2COOH)]Y(Carboxymethyl)R[NMeF]L[NMeA][NMeF][dC]-OH; thioether N-15), the IC50 on GDF-11 was found to be 26.3 µM; on Myostatin [1], 0.0888 µM. This molecule also showed a Selectivity in the assay on Myostatin [2] of 296.

What is called IC50 is the midpoint of a concentration-inhibition curve.
